What was measured:
C. elegans [1] = assay: liquid assay: compound administered to the worm in liquid culture; assay type: in vivo
Text: (§1) Using two kinds of assays, the optimal concentration of compounds that inhibit the activity SERCA has been determined. The first assay is designated the drop or plate assay in which the nematodes are fed E. coli strains pre-loaded with the compound. In a second assay, the compound is administrated to the worm in liquid culture.

C. elegans [2] = assay: plate (drop) assay: nematodes fed E. coli lawn pre-loaded with the compound; assay type: in vivo
Experimental: as §1
A standard plate drop assay is performed according to the following protocol. 4 ml NGM agar (see “The nematode C. elegans” Ed. by William B. Wood and the Community of C. elegans Researchers, CSHL Press, 1988, pg589) is into 3 cm plates and seeded with approximately 5 μl of an E. coli overnight culture and grown preferably for one week at room temperature. Approximately 10 μl of test compound dissolved in DMSO or other suitable solvent is pipetted onto the bacterial lawn so that the lawn is covered completely. After overnight soaking in or compound, one C. elegans (L4 stage) per plate is put onto the bacterial lawn. Plates are incubated at 21° C. and checked after some hours.

SERCA Phe256Val = details: substitution Phe256Val in hamsters (Yu et al., 1999); cited from earlier work
[3] = tested on: C. elegans wild-type worms and mutant strain unc-31; assay: effect on pharynx pumping behaviour; assay type: in vivo
Experimental: The effect of thapsigargin on pharynx pumping behaviour was also determined. In wild-type worms, all animals stopped pumping after 10 minutes.

[4] = tested on: C. elegans strain UG530 (harboring plasmid pGK28); assay: thapsigargin sensitivity of worms carrying the pGK28 (Phe259Val SERCA) transgene; assay type: in vivo; details: for stage reached by progeny on thapsigargin: 10 μl drops of 5 to 0.05 mM thapsigargin in DMSO, 5 days
Experimental: FIG. 3 illustrates the growth of C. elegans strain UG530 (strain harboring plasmid pGK28) on different concentrations of thapsigargin. The stage of the progeny was determined 5 days after adults were put on the plates. […] These were differentiated based on a GFP marker also present on this transgene.
The effect of thapsigargin on worms carrying a pGK28 transgene was measured in the following way: 10 μl of thapsigargin dissolved in DMSO (5, 2.5, 1, 0.5, 0.25, 0.1, and 0.05 mM respectively) was added onto a drop of E. coli strain OP50cs2 in 12-well plates. The wells with compounds were placed at 10 C. overnight, after which […] young adults were added to the wells. The pharynx pumping rate and movement behaviour was scored for the ten worms after 10 minutes and after one hour (short term effect). Furthermore the wells were scored for protruding vulva and rectum, production of progeny (few eggs in body) after one day (mid-term-effects), and for progeny after four days (long term effect)

[5] = tested on: C. elegans strains unc-31 and srf-3; assay: production of progeny after thapsigargin treatment in different C. elegans strains; assay type: in vivo
Experimental: The effect of thapsigargin on the production of progeny was determined for a number of different C. elegans strains. The numbers of progeny produced following thapsigargin treatment was counted for an average of 15 animals, the results are summarised as follows: […]

[6] = mutant strain unc-31, 1 mM thapsigargin

## CC(C)(C)c1cc(O)c(C(C)(C)C)cc1O [2,5-di-tert butylhydroquinone]
C. elegans [1]; 1 mM
  phenotype of worms and progeny: progeny exhibiting delayed growth and the worms be observed to be thinner
C. elegans [2]; 500 μM
  phenotype of the worms: pale, starved, thin worms with slow movement, defective gonad, constipated and reduced brood size

## O=C1C=CC(=O)C=C1 [1,4-benzoquinone]
C. elegans [2]; 100 mM drop, 500 μM end concentration
  observable effect at the highest concentration tested: did not result in a clear observable effect

## C/C=C(/C)C(=O)O[C@H]1C(C)=C2[C@H]([C@@H]1OC(=O)CCCCC)[C@@](C)(OC(C)=O)C[C@H](OC(=O)CCC)[C@@]1(O)[C@H]2OC(=O)[C@@]1(C)O [Thapsigargicin]
C. elegans [1]; 1000 μM, 250 μM, 62.5 μM and 16 μM
  phenotype of worms and progeny: small worms with slow and loopy movement, a protruding vulva, and no progeny (or no progeny that grows up)
C. elegans [1]; lower concentration 10 μM
  growth and progeny: delayed growth and reduced progeny
C. elegans [2]; lower concentrations 3 μM and 1.5 μM
  brood size: slightly reduced brood size

## C/C=C(/C)C(=O)O[C@H]1C(C)=C2[C@H]([C@@H]1OC(=O)CCCCCCC)[C@@](C)(OC(C)=O)C[C@H](OC(=O)CCC)[C@@]1(O)[C@H]2OC(=O)[C@@]1(C)O [thapsigargin]
SERCA Phe256Val
  resistance to thapsigargin inhibition: 40 fold
C. elegans [1]; 100, 50 and 20 μM
  size and movement of the worms: small worms which show slow and loopy movement
  vulva and progeny: protruding vulva, and no progeny (or no progeny that grows up)
C. elegans [1]; lower concentrations 10 μM and 5 μM
  progeny and growth: reduced number of progeny and delayed growth
[3]; [6]
  pumping speed after restart: one third of normal speed
  restart of pumping: some start again after half an hour
  time after which all worms stopped pumping: 10 min
[3]; wild-type worms
  time after which all animals stopped pumping: 10 min
[4]; GFP-animals harboring pGK28 (Phe259Val SERCA)
  stage reached by progeny on thapsigargin: grew up to adult or L4
[4]; nematodes harboring the Phe259Val SERCA mutant compared with wild-type
  amount of progeny on thapsigargin: slightly more progeny than wild-type
[4]; non-GFP animals (not harboring the mutated SERCA)
  stage reached by progeny on thapsigargin: arrested at L1 and L2 and never grew up further than L3
[4]; strain UG530 (harboring pGK28) treated with thapsigargin
  protruding vulva and rectum-phenotype: not or were only occasionally observed
[4]; wild-type nematodes treated with thapsigargin
  protruding vulva and rectum-phenotype: very often observed
[5]; strain srf-3, 1 mM thapsigargin, average of 15 animals (control 50)
  number of progeny produced: 18,3
[5]; strain unc-31, 0.5 mM thapsigargin, average of 15 animals (control 132)
  number of progeny produced: 35
[5]; strain unc-31, 1 mM thapsigargin, average of 15 animals (control 132)
  number of progeny produced: 5,6
C. elegans [2]; 5 μM, 2.5 μM and 1.25 μM
  appearance and movement of the worms: pale and thin and have a slow and irregular movement, with an increased amplitude
  brood size: very small
  gonad, eggs and vulva: defective gonad with only very few eggs, and a protruding vulva
  plate drop response, backing, pumping, constipation: No plate drop response is observed, and the worms show poor backing, reduced pumping and strong constipation
  rectum: Some worms also have a protruding rectum
  restart of pharynx pumping: Within an hour the worms restart pumping, although at a low level
  time until the nematode stops pharynx pumping: ≤ 10 min
C. elegans [2]; 5 μM, 2.5 μM and 1.25 μM, after four days
  stage reached by progeny: Progeny reaches L2 stage only after four days
C. elegans [2]; lower concentrations 0.5 μM, 0.25 μM, 0.125 μM
  brood size: reduced brood size
